The source of these data is article PMC7122770, “Potential endocrine disrupting properties of toys for babies and infants” (PLoS ONE, 2020).

Where a name gives a salt, the structure may show the parent alone. Read-outs that look alike come from different tables or passages of the source.

A short description of data set [1]: Toxicological reference values (TDI, ADI, reference dose). More on the design: species or system human. From the text:
Risks were estimated by comparing the daily exposure (DE) to toxicological reference values (TRV) when available.

The conditions of data set [2]: cited from earlier work.
The conditions of data set [3]: cited from earlier work. This is another data set of the same source.
Data set [4] addresses T1, human estrogen receptor (Estrogen Receptor α) (Homo sapiens, UniProt P03372).
T1 sequence (P03372 1-595): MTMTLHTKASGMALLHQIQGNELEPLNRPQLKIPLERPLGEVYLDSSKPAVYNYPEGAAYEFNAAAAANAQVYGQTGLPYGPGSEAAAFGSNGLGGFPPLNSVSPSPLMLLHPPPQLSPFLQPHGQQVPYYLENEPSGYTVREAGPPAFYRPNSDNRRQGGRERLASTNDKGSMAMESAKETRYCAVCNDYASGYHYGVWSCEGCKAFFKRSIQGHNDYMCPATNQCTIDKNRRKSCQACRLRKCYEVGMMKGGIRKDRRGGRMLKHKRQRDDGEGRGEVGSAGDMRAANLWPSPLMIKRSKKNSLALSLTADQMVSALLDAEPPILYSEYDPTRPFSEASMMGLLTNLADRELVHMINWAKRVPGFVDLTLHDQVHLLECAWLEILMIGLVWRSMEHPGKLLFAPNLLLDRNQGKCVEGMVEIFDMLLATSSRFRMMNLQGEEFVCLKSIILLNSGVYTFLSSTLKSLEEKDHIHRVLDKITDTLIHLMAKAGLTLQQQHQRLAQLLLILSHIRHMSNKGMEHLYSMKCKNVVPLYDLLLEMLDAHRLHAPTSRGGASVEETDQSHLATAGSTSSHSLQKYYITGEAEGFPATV
Put plainly: Analysis of detected pure substances in ER-CALUX. In kind it is cell-based. The following applies: for % E2 max: mean of triplicates.

In data set [5] the test system is U2-OS osteosarcoma cell line. Put plainly: Cytotoxic effects / cell viability in the CALUX cells. Format: cell-based, human. The following applies: two highest concentrations in ER-CALUX.
The mark [6] stands for this setting: 2,50E-04 mol/l in bioassay medium.
Setting [7] is: 2,50E-06 mol/l in bioassay medium.
Where [8] appears, read: 5,00E-04 mol/l in bioassay medium.
[9] abbreviates: 5,00E-05 mol/l in bioassay medium.
[10] abbreviates: 5,00E-06 mol/l in bioassay medium.
The mark [11] stands for this setting: pure substance in ER-CALUX, read-out: EC50.

For the molecule `C#C[C@]1(O)CC[C@H]2[C@@H]3CCc4cc(O)ccc4[C@H]3CC[C@@]21C` [17α-ethinyl estradiol, reference compound], the “fold lower ADI than 17β-estradiol” value in data set [1] is “approximately 400 fold”. Besides, in data set [2], the “in vitro estrogen activity compared with 17β-estradiol” value is “approximatively the same in vitro estrogen activity as the natural sex hormone 17β-estradiol”. Further, the “acceptable daily intake (ADI)” value in data set [3] (adult person (60 kg), based on working place thresholds ref 40) was 7 ng.
On to `CCOC(=O)c1ccccc1C(=O)OCC` [Diethyl phthalate (DEP), Diethyl phthalate], for which the “% E2 max” value in data set [4] (setting [6]) was 47%; in data set [4] (setting [7]), 9%; in data set [4] (setting [8]), 69%; in data set [4] (setting [9]), 23%; in data set [4] (setting [10]) it was 10%. Also, the “Estrogen active [yes/no]” value in data set [4] (pure substance in ER-CALUX) is “yes”. The EC50 (as a rule, the concentration that produces a half-maximal response) in data set [4] (setting [11]) stood at 200 µM.
As for `CCCCOC(=O)CC(O)(CC(=O)OCCCC)C(=O)OCCCC` [Tributyl citrate (TBC), Tributyl citrate], the “% E2 max” value in data set [4] (setting [6]) came to 8%; in data set [4] (setting [7]) it was 4%; in data set [4] (setting [8]) it was 3%; in data set [4] (setting [9]) it was 34%; in data set [4] (setting [10]) it was 6%. Further, the “Estrogen active [yes/no]” value in data set [4] (pure substance in ER-CALUX) is on record as “yes”; in data set [4] (pure substance in ER-CALUX, listed as TBC), “low, but significant estrogen activity”. Further, the EC50 in data set [4] (setting [11]) came out at 50 µM. Moreover, the cell viability result in data set [5] is recorded as “decrease in cell viability”.
As for `CCCCCCCC/C=C\CCCCCCCCCCCC(N)=O` [13-Docosenamide (Z)], the “endocrine activity in the in vitro tests used in this study” value in data set [4] (pure substance) was “not endocrine active”. The “Estrogen active [yes/no]” value in data set [4] (pure substance in ER-CALUX) is “no”. In data set [4] (setting [11]), the EC50 is over 500 µM.
Take `O=C(c1ccccc1)c1ccccc1` [Benzophenone]: the “tolerable daily intake (TDI)” value in data set [3] (recommended by the European Food Safety Agency ref 43) is 30 μg/kg body weight per day.
On to `CCCCOC(=O)CC(CC(=O)OCCCC)(OC(C)=O)C(=O)OCCCC` [Acetyl tributyl citrate (ATBC), Acetyl tributyl citrate], for which the “estrogenic or androgenic activity” value in data set [2] (based on published data ref 2) is on record as “does not seem to show estrogenic or androgenic activity”.
For `CC(C)CCCCCCOC(=O)C1CCCCC1C(=O)OCCCCCCC(C)C` (centres unmarked) [Diisononyl cyclohexane-1,2-dicarboxylate], the “Estrogen active [yes/no]” value in data set [4] (pure substance in ER-CALUX) is “no”; in data set [4] (pure substance in ER-CALUX, listed as DINCH), “negative”. Also, in data set [4] (setting [11]), the EC50 is over 500 µM. Also, in data set [3], the “lowest reference value published” value is given as 0.7 mg/kg bw/day.
In the case of `CC(C)(c1ccc(O)cc1)c1ccc(O)cc1` [Bisphenol A (BPA), Bisphenol A], the “% E2 max” value in data set [4] (setting [7]) came to 151%; in data set [4] (setting [10]) it was 154%; in data set [4] (5,00E-07 mol/l in bioassay medium), 116%; in data set [4] (5,00E-08 mol/l in bioassay medium), 11%; in data set [4] (5,00E-09 mol/l in bioassay medium), 5%. In addition, the “factor less estrogen active than the natural estrogen 17β-estradiol” value in data set [4] (based on response curves in ER-CALUX (Fig 2)) is recorded as about 30.000. Besides, the “temporary tolerable daily intake (TDI)” value in data set [3] (recommended by EFSA, taking into account endocrine effects ref 43) is on record as 4 μg/kg body weight per day.
With `CC(C)C(=O)OCC(C)(C)C(OC(=O)C(C)C)C(C)C` (centres unmarked) [2,2,4-Trimethyl-1,3-pentanediol diisobutyrate], the EC50 in data set [4] was over 500 µM. In addition, the “Estrogen active [yes/no]” value in data set [4] (pure substance in ER-CALUX) is on record as “no”; in data set [4] (pure substance in ER-CALUX, listed as TXIB), “negative”.
